Laboratory results: the NIST ThermoML archive (doi:10.1021/acs.jced.9b00442)
± gives the expanded uncertainty stated by the source.

assay: refractive index (Na D-line) (dimensionless); conditions: 283.15 K; 100 kPa; Liquid; Standard Abbe refractometry

SMILES | refractive index
CC[N+](C)(C)CCOC.O=S(=O)([N-]S(=O)(=O)C(F)(F)F)C(F)(F)F | 1.4164 ± 0.0017
CC[N+](C)(C)CCCO.O=S(=O)([N-]S(=O)(=O)C(F)(F)F)C(F)(F)F | 1.4253 ± 0.0017
CCCC[N+](C)(C)CC.O=S(=O)([N-]S(=O)(=O)C(F)(F)F)C(F)(F)F | 1.4174 ± 0.0017

same assay, conditions: 288.15 K; 100 kPa; Liquid; Standard Abbe refractometry

SMILES | refractive index
CC[N+](C)(C)CCOC.O=S(=O)([N-]S(=O)(=O)C(F)(F)F)C(F)(F)F | 1.415 ± 0.0017
CC[N+](C)(C)CCCO.O=S(=O)([N-]S(=O)(=O)C(F)(F)F)C(F)(F)F | 1.4241 ± 0.0017
CCCC[N+](C)(C)CC.O=S(=O)([N-]S(=O)(=O)C(F)(F)F)C(F)(F)F | 1.416 ± 0.0017

same assay, conditions: 293.15 K; 100 kPa; Liquid; Standard Abbe refractometry

SMILES | refractive index
CC[N+](C)(C)CCOC.O=S(=O)([N-]S(=O)(=O)C(F)(F)F)C(F)(F)F | 1.4136 ± 0.0017
CC[N+](C)(C)CCCO.O=S(=O)([N-]S(=O)(=O)C(F)(F)F)C(F)(F)F | 1.4228 ± 0.0017
CCCC[N+](C)(C)CC.O=S(=O)([N-]S(=O)(=O)C(F)(F)F)C(F)(F)F | 1.4147 ± 0.0017

same assay, conditions: 298.15 K; 100 kPa; Liquid; Standard Abbe refractometry

SMILES | refractive index
CC[N+](C)(C)CCOC.O=S(=O)([N-]S(=O)(=O)C(F)(F)F)C(F)(F)F | 1.4121 ± 0.0017
CC[N+](C)(C)CCCO.O=S(=O)([N-]S(=O)(=O)C(F)(F)F)C(F)(F)F | 1.4215 ± 0.0017
CCCC[N+](C)(C)CC.O=S(=O)([N-]S(=O)(=O)C(F)(F)F)C(F)(F)F | 1.4133 ± 0.0017

same assay, conditions: 303.15 K; 100 kPa; Liquid; Standard Abbe refractometry

SMILES | refractive index
CC[N+](C)(C)CCOC.O=S(=O)([N-]S(=O)(=O)C(F)(F)F)C(F)(F)F | 1.4107 ± 0.0017
CC[N+](C)(C)CCCO.O=S(=O)([N-]S(=O)(=O)C(F)(F)F)C(F)(F)F | 1.4203 ± 0.0017
CCCC[N+](C)(C)CC.O=S(=O)([N-]S(=O)(=O)C(F)(F)F)C(F)(F)F | 1.412 ± 0.0017

same assay, conditions: 308.15 K; 100 kPa; Liquid; Standard Abbe refractometry

SMILES | refractive index
CC[N+](C)(C)CCOC.O=S(=O)([N-]S(=O)(=O)C(F)(F)F)C(F)(F)F | 1.4092 ± 0.0017
CC[N+](C)(C)CCCO.O=S(=O)([N-]S(=O)(=O)C(F)(F)F)C(F)(F)F | 1.419 ± 0.0017
CCCC[N+](C)(C)CC.O=S(=O)([N-]S(=O)(=O)C(F)(F)F)C(F)(F)F | 1.4106 ± 0.0017

same assay, conditions: 313.15 K; 100 kPa; Liquid; Standard Abbe refractometry

SMILES | refractive index
CC[N+](C)(C)CCOC.O=S(=O)([N-]S(=O)(=O)C(F)(F)F)C(F)(F)F | 1.4078 ± 0.0017
CC[N+](C)(C)CCCO.O=S(=O)([N-]S(=O)(=O)C(F)(F)F)C(F)(F)F | 1.4176 ± 0.0017
CCCC[N+](C)(C)CC.O=S(=O)([N-]S(=O)(=O)C(F)(F)F)C(F)(F)F | 1.4092 ± 0.0017

same assay, conditions: 318.15 K; 100 kPa; Liquid; Standard Abbe refractometry

SMILES | refractive index
CC[N+](C)(C)CCOC.O=S(=O)([N-]S(=O)(=O)C(F)(F)F)C(F)(F)F | 1.4065 ± 0.0017
CC[N+](C)(C)CCCO.O=S(=O)([N-]S(=O)(=O)C(F)(F)F)C(F)(F)F | 1.4164 ± 0.0017
CCCC[N+](C)(C)CC.O=S(=O)([N-]S(=O)(=O)C(F)(F)F)C(F)(F)F | 1.4078 ± 0.0017

same assay, conditions: 323.15 K; 100 kPa; Liquid; Standard Abbe refractometry

SMILES | refractive index
CC[N+](C)(C)CCOC.O=S(=O)([N-]S(=O)(=O)C(F)(F)F)C(F)(F)F | 1.4051 ± 0.0017
CC[N+](C)(C)CCCO.O=S(=O)([N-]S(=O)(=O)C(F)(F)F)C(F)(F)F | 1.4151 ± 0.0017
CCCC[N+](C)(C)CC.O=S(=O)([N-]S(=O)(=O)C(F)(F)F)C(F)(F)F | 1.4064 ± 0.0017

same assay, conditions: 328.15 K; 100 kPa; Liquid; Standard Abbe refractometry

SMILES | refractive index
CC[N+](C)(C)CCOC.O=S(=O)([N-]S(=O)(=O)C(F)(F)F)C(F)(F)F | 1.4037 ± 0.0017
CC[N+](C)(C)CCCO.O=S(=O)([N-]S(=O)(=O)C(F)(F)F)C(F)(F)F | 1.4139 ± 0.0017
CCCC[N+](C)(C)CC.O=S(=O)([N-]S(=O)(=O)C(F)(F)F)C(F)(F)F | 1.4051 ± 0.0017

same assay, conditions: 333.15 K; 100 kPa; Liquid; Standard Abbe refractometry

SMILES | refractive index
CC[N+](C)(C)CCOC.O=S(=O)([N-]S(=O)(=O)C(F)(F)F)C(F)(F)F | 1.4024 ± 0.0017
CC[N+](C)(C)CCCO.O=S(=O)([N-]S(=O)(=O)C(F)(F)F)C(F)(F)F | 1.4126 ± 0.0017
CCCC[N+](C)(C)CC.O=S(=O)([N-]S(=O)(=O)C(F)(F)F)C(F)(F)F | 1.4038 ± 0.0017

same assay, conditions: 338.15 K; 100 kPa; Liquid; Standard Abbe refractometry

SMILES | refractive index
CC[N+](C)(C)CCOC.O=S(=O)([N-]S(=O)(=O)C(F)(F)F)C(F)(F)F | 1.4011 ± 0.0017
CC[N+](C)(C)CCCO.O=S(=O)([N-]S(=O)(=O)C(F)(F)F)C(F)(F)F | 1.4114 ± 0.0017
CCCC[N+](C)(C)CC.O=S(=O)([N-]S(=O)(=O)C(F)(F)F)C(F)(F)F | 1.4024 ± 0.0017

same assay, conditions: 343.15 K; 100 kPa; Liquid; Standard Abbe refractometry

SMILES | refractive index
CC[N+](C)(C)CCOC.O=S(=O)([N-]S(=O)(=O)C(F)(F)F)C(F)(F)F | 1.3998 ± 0.0017
CC[N+](C)(C)CCCO.O=S(=O)([N-]S(=O)(=O)C(F)(F)F)C(F)(F)F | 1.4101 ± 0.0017
CCCC[N+](C)(C)CC.O=S(=O)([N-]S(=O)(=O)C(F)(F)F)C(F)(F)F | 1.4012 ± 0.0017

same assay, conditions: 348.15 K; 100 kPa; Liquid; Standard Abbe refractometry

SMILES | refractive index
CC[N+](C)(C)CCOC.O=S(=O)([N-]S(=O)(=O)C(F)(F)F)C(F)(F)F | 1.3985 ± 0.0017
CC[N+](C)(C)CCCO.O=S(=O)([N-]S(=O)(=O)C(F)(F)F)C(F)(F)F | 1.4089 ± 0.0017
CCCC[N+](C)(C)CC.O=S(=O)([N-]S(=O)(=O)C(F)(F)F)C(F)(F)F | 1.3998 ± 0.0017

same assay, conditions: 353.15 K; 100 kPa; Liquid; Standard Abbe refractometry

SMILES | refractive index
CC[N+](C)(C)CCOC.O=S(=O)([N-]S(=O)(=O)C(F)(F)F)C(F)(F)F | 1.3972 ± 0.0017
